How the values were obtained:
[1] = molecular target: T1, Avi-KRAS G12D (1-169) GppNHp/RAF1 RBD-3×FLAG (52-151) (Homo sapiens, UniProt P01116, G12D); test: HTRF Raf1-KRAS G12D-GppNHp disruption assay; format: biochemical; details: 1 h incubation
T1 construct: Avi-KRAS G12D (1-169) GppNHp
Procedure: (§1) The HTRF assay employed the following protocol:
(§2) Compounds were dispensed in assay plate (384-well, Grenier Bione #784075) using Echo (model 555) with dose response settings: 200 nL final volume, titration from 100 μM as a 10-point dilution series. Protein mix was prepared in assay buffer, and dispensed on plates, 10 μL per well, then incubated for 1 h at room temperature, with 700 rpm shaking. Reagents mix was prepared and dispensed on plates, 10 μL per well, then incubated for 1 h at room temperature, with 700 rpm shaking.
(§3) Plates were analyzed on an Envision plate reader using the following setting: Excitation 320 nm, Bandwidth […]; Emission 615 nm, Bandwidth […], Gain 100%, Flashes 100, Lag 60 μs. Data was reported as percentage of activity, with DMSO as 100%. Data was plotted and analyzed using Prism 8.

[2] = molecular target: T2, Avi-KRAS G12D/Q25A (1-169) GppNHp/3×FLAG-PI3KCA (157-299) (Homo sapiens, UniProt P01116, G12D/Q25A); test: HTRF PI3KCA-KRAS G12D/Q25A-GppNHp disruption assay; format: biochemical; details: 1 h incubation
T2 construct: Avi-KRAS G12D/Q25A (1-169) GppNHp
T2 sequence (P01116 1-169 isoform P01116-2 G12D/Q25A limits assumed): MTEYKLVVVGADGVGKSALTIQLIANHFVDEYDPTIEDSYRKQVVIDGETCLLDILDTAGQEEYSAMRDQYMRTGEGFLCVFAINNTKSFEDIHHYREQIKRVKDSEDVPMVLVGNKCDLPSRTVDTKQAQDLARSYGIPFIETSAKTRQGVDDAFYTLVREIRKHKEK
Procedure: as §1, §2, §3

T1 sequence (P01116 1-169 isoform P01116-2 G12D limits assumed): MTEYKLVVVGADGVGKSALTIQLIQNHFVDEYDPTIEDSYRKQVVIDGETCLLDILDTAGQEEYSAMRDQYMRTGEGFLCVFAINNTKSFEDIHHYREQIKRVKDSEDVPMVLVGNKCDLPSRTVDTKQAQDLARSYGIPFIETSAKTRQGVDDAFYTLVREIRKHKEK

IC50 [1]	IC50 [2]	Compound
1 to 10 µM	1 to 10 µM	CN1C[C@H](OC(F)F)C[C@H]1COc1nc(NC2CNC2)c2cc(Cl)c(-c3ccc(F)c4sc(N)nc34)c(F)c2n1 [Compound 132]
1 to 10 µM	1 to 10 µM	CN1C[C@H](F)C[C@H]1COc1nc(NC2CNC2)c2cc(-c3ccoc3)c(-c3ccc(F)c4sc(N)nc34)c(F)c2n1 [Compound 135]
10 to 30 µM	10 to 30 µM	CN1CC(F)(F)C[C@H]1COc1nc(NCCN)c2cc(Cl)c(-c3ccc(F)c4sc(N)nc34)c(F)c2n1 [Compound 136]
1 to 10 µM	10 to 30 µM	CN1C[C@H](F)C[C@H]1COc1nc(NC2CN(C(=O)CN)C2)c2cc(-c3ccoc3)c(-c3ccc(F)c4sc(N)nc34)c(F)c2n1 [Compound 137]
1 to 10 µM	10 to 30 µM	CN1C[C@H](F)C[C@H]1COc1nc(N2CCNCC2)c2cc(C(F)(F)F)c(-c3ccc(F)c4sc(N)nc34)c(F)c2n1 [Compound 140]
10 to 30 µM	10 to 30 µM	CN1C[C@H](F)C[C@H]1COc1nc(N2CCNCC2)c2cc(-c3ccoc3)c(-c3ccc(F)c4sc(N)nc34)c(F)c2n1 [Compound 141]
10 to 30 µM	10 to 30 µM	CN1CCC[C@H]1COc1nc(N2CCNCC2)c2cc(-c3ccoc3)c(-c3ccc(F)c4sc(N)nc34)c(F)c2n1 [Compound 143, 7-fluoro-4-(8-fluoro-6-(furan-3-yl)-2-(((S)-1-methylpyrrolidin-2-yl)methoxy)-4-(piperazin-1-yl)quinazolin-7-yl)benzo[d]thiazol-2-amine]
10 to 30 µM	10 to 30 µM	CN1CCC[C@H]1COc1nc(N2CCN(C(=O)CN)CC2)c2cc(-c3ccoc3)c(-c3ccc(F)c4sc(N)nc34)c(F)c2n1 [Compound 144, 2-amino-1-(4-(7-(2-amino-7-fluorobenzo[d]thiazol-4-yl)-8-fluoro-6-(furan-3-yl)-2-(((S)-1-methylpyrrolidin-2-yl)methoxy)quinazolin-4-yl)piperazin-1-yl)ethan-1-one]
10 to 30 µM	10 to 30 µM	CN1CCC[C@H]1COc1nc(N2CCNCC2)c2cc(-c3ccccc3)c(-c3ccc(F)c4sc(N)nc34)c(F)c2n1 [Compound 145]
1 to 10 µM	10 to 30 µM	CN1CCC[C@H]1COc1nc(NC2CN(C(=O)CN)C2)c2cc(-c3ccoc3)c(-c3ccc(F)c4sc(N)nc34)c(F)c2n1 [Compound 146]
10 to 30 µM	10 to 30 µM	CN(c1nc(OC[C@@H]2CCCN2C)nc2c(F)c(-c3ccc(F)c4sc(N)nc34)c(Cl)cc12)C1CN(C(=O)CN)C1 [Compound 147]
1 to 10 µM	1 to 10 µM	CN1CCC[C@H]1COc1nc(NCCN)c2cc(C(F)(F)F)c(-c3ccc(F)c4sc(N)nc34)c(F)c2n1 [Compound 149]
10 to 30 µM	10 to 30 µM	CN(c1nc(OC[C@@H]2C[C@@H](F)CN2C)nc2c(F)c(-c3ccc(F)c4sc(N)nc34)c(-c3ccoc3)cc12)C1CN(C(=O)CN)C1 [Compound 150]
1 to 10 µM	10 to 30 µM	CN(c1nc(OCC23CCCN2CCC3)nc2c(F)c(-c3ccc(F)c4sc(N)nc34)c(-c3ccoc3)cc12)C1CN(C(N)=O)C1 [Compound 151]
10 to 30 µM	10 to 30 µM	CN1CCC[C@H]1COc1nc(N(C2CC2)C2CNC2)c2cc(Cl)c(-c3ccc(F)c4sc(N)nc34)c(F)c2n1 [Compound 152]
1 to 10 µM	10 to 30 µM	NCC(=O)N1CC[C@@H]2[C@H]1CN2c1nc(OCC23CCCN2CCC3)nc2c(F)c(-c3ccc(F)c4sc(N)nc34)c(-c3ccoc3)cc12 [Compound 153]
10 to 30 µM	10 to 30 µM	Nc1nc2c(-c3c(C4CCC4)cc4c(N5CCNCC5)ncnc4c3F)ccc(F)c2s1 [Compound 154]
10 to 30 µM	1 to 10 µM	CN1CCC[C@H]1COc1nc(N2CCNCC2)c2cc(-c3cccnc3)c(-c3ccc(F)c4sc(N)nc34)c(F)c2n1 [Compound 155, 7-fluoro-4-(8-fluoro-2-(((S)-1-methylpyrrolidin-2-yl)methoxy)-4-(piperazin-1-yl)-6-(pyridin-3-yl)quinazolin-7-yl)benzo[d]thiazol-2-amine]
10 to 30 µM	10 to 30 µM	CN(c1nc(OC[C@@H]2C[C@@H](F)CN2C)nc2c(F)c(-c3ccc(F)c4sc(N)nc34)c(C(F)(F)F)cc12)C1CN(C(=O)CN)C1 [Compound 156]
0.1 to 1 µM	10 to 30 µM	Nc1nc2c(-c3c(-c4ccoc4)cc4c(N5CC6CCC(C5)N6)nc(OCC56CCCN5CCC6)nc4c3F)ccc(F)c2s1 [Compound 159]
10 to 30 µM	10 to 30 µM	CN1CC(F)(F)C[C@H]1COc1nc(N2CCNCC2)c2cc(C(F)(F)F)c(-c3ccc(F)c4sc(N)nc34)c(F)c2n1 [Compound 160]
1 to 10 µM	1 to 10 µM	Oc1cc(-c2c(Cl)cc3c(N4CC5CCC(C4)N5)nc(OCC45CCCN4CCC5)nc3c2F)c2ccccc2c1 [Compound 161]

IC50 [1]	IC50 [2]	Compound
10 to 30 µM	10 to 30 µM	NC(=O)N1CCN(c2nc(OCC34CCCN3CCC4)nc3c(F)c(-c4ccc(F)c5sc(N)nc45)c(Cl)cc23)CC1 [Compound 162]
10 to 30 µM	10 to 30 µM	CN(c1nc(OCC23CCCN2CCC3)nc2c(F)c(-c3ccc(F)c4sc(N)nc34)c(-c3ccoc3)cc12)C1CN(C(=O)CN)C1 [Compound 163]
10 to 30 µM	10 to 30 µM	CN(c1nc(OCC23CCCN2CCC3)nc2c(F)c(-c3ccc(F)c4sc(N)nc34)c(Cl)cc12)C1CN(C(=O)CN)C1 [Compound 164]
10 to 30 µM	10 to 30 µM	NC(=O)N1CCN(c2nc(OCC34CCCN3CCC4)nc3c(F)c(-c4ccc(F)c5sc(N)nc45)c(C(F)(F)F)cc23)CC1 [Compound 165, 4-(7-(2-amino-7-fluorobenzo[d]thiazol-4-yl)-8-fluoro-2-((tetrahydro-1H-pyrrolizin-7a(5H)-yl)methoxy)-6-(trifluoromethyl)quinazolin-4-yl)piperazine-1-carboxamide]
10 to 30 µM	10 to 30 µM	CN(c1nc(OC[C@@H]2CCCN2CCF)nc2c(F)c(-c3ccc(F)c4sc(N)nc34)c(C(F)(F)F)cc12)C1CNC1 [Compound 166]
10 to 30 µM	10 to 30 µM	CCN(c1nc(OC[C@@H]2CCCN2C)nc2c(F)c(-c3ccc(F)c4sc(N)nc34)c(C(F)(F)F)cc12)C1CNC1 [Compound 170]
10 to 30 µM	1 to 10 µM	CN1CCC[C@H]1COc1nc(N2CCNCC2)c2cc(CC#N)c(-c3ccc(F)c4sc(N)nc34)c(F)c2n1 [Compound 175, 2-[7-(2-amino-7-fluoro-1,3-benzothiazol-4-yl)-8-fluoro-2-[[(2S)-1-methylpyrrolidin-2-yl]methoxy]-4-piperazin-1-yl-quinazolin-6-yl]acetonitrile]
10 to 30 µM	10 to 30 µM	CN1CCC[C@H]1COc1nc(N2CCNCC2)c2cc(-c3cnn(C)c3)c(-c3ccc(F)c4sc(N)nc34)c(F)c2n1 [Compound 176]
10 to 30 µM	10 to 30 µM	CCc1cc2c(N3CCNCC3)nc(OC[C@@H]3CCCN3C)nc2c(F)c1-c1ccc(F)c2sc(N)nc12 [Compound 177, 4-(6-ethyl-8-fluoro-2-(((S)-1-methylpyrrolidin-2-yl)methoxy)-4-(piperazin-1-yl)quinazolin-7-yl)-7-fluorobenzo[d]thiazol-2-amine]
10 to 30 µM	10 to 30 µM	N#CCCN1CCC[C@H]1COc1nc(NC2CNC2)c2cc(Cl)c(-c3ccc(F)c4sc(N)nc34)c(F)c2n1 [Compound 178]
10 to 30 µM	10 to 30 µM	CC(C)N(c1nc(OC[C@@H]2CCCN2C)nc2c(F)c(-c3ccc(F)c4sc(N)nc34)c(Cl)cc12)C1CNC1 [Compound 180]
1 to 10 µM	1 to 10 µM	NCC(=O)N1CCN(c2nc(OC[C@]34CCCN3C[C@H](F)C4)nc3c(F)c(-c4ccc(F)c5sc(N)nc45)c(C(F)(F)F)cc23)CC1 [Compound 181]
1 to 10 µM	10 to 30 µM	CN(c1nc(OCC23CCCN2CCC3)nc2c(F)c(-c3ccc(F)c4sc(N)nc34)c(Cl)cc12)C1CN(C(N)=O)C1 [Compound 182]
10 to 30 µM	10 to 30 µM	CN1CCC[C@H]1COc1nc(N(CCC#N)C2CN(C(=O)CN)C2)c2cc(Cl)c(-c3ccc(F)c4sc(N)nc34)c(F)c2n1 [Compound 183]
10 to 30 µM	10 to 30 µM	NC(=O)N1CCN(c2nc(OCC34CCCN3CCC4)nc3c(F)c(-c4ccc(F)c5sc(N)nc45)c(-c4ccoc4)cc23)CC1 [Compound 186]
1 to 10 µM	1 to 10 µM	Nc1nc2c(-c3c(C(F)(F)F)cc4c(N5CCNCC5)nc(OCC56CCCN5CCC6)nc4c3F)ccc(F)c2o1 [Compound 189]
1 to 10 µM	1 to 10 µM	CC1(Nc2nc(OCC34CCCN3CCC4)nc3c(F)c(-c4ccc(F)c5sc(N)nc45)c(Cl)cc23)CNC1 [Compound 190]
1 to 10 µM	1 to 10 µM	CN1CCC[C@H]1COc1nc(N2CCNCC2)c2cc(OC(F)(F)F)c(-c3ccc(F)c4sc(N)nc34)c(F)c2n1 [Compound 191]
1 to 10 µM	1 to 10 µM	Nc1nc2c(-c3c(Cl)cc4c(NC5CNC5)nc(OCC56CCCN5CCC6)nc4c3F)ccc(F)c2o1 [Compound 192]
10 to 30 µM	10 to 30 µM	CCN(c1nc(OC[C@@H]2CCCN2C)nc2c(F)c(-c3ccc(F)c4sc(N)nc34)c(Cl)cc12)C1CNC1 [Compound 196]
10 to 30 µM	10 to 30 µM	CCN(c1nc(OC[C@@H]2CCCN2C)nc2c(F)c(-c3ccc(F)c4sc(N)nc34)c(Cl)cc12)C1CN(C(=O)CN)C1 [Compound 197]

Source: US20240246954A1, “COMPOSITIONS AND METHODS FOR INHIBITING KRAS” (TheRas, Inc., priority 2021, published 2024)
